Test results from patent US20080196124A1, “Plant Growth Hormone Regulated Transcription Factors and Promoters Thereof” (DONALD DANFORTH PLANT SCIENCE CENTER, priority 2006, published 2008).

Assays:
MRE element = experiment: Gel mobility shift assay, MRE; format: binding, Arabidopsis; settings: 100 ng AtMyb77::His, 3x repeat labeled oligo
Method: (§1) An AtMyb77 cDNA fragment was amplified by PCR and cloned into the Ndel and SacI sites of the pET28 vector (Novagen, Madison, Wis., USA). The primer set used for the amplification was 5′-[…]-3′ (SEQ ID NO:37) and 5′-[…]-3′ (SEQ ID NO:38). The resulting in-frame fusion was transformed into Escherichia coli strain BL21 (DE3). Overexpression of AtMyb77::His was induced by 0.5 mM isopropyl-β-D-thiogalactoside at 20° C. for 4 h. Bacteria were pelleted after the induction period, suspended in lysis buffer (50 mM NaH2PO4H2O, 300 mM NaCl, 10 mM Imidazole) and subjected to sonication on ice for 1 min. Bacterial lysates were then centrifuged. The His tagged fusion protein was recovered by affinity chromatography on Nickel-NTA (Sigma-Aldrich, St. Louis, Mo., USA) and the purified protein was used for gel mobility shift assays.
(§2) Both strands of the MRE element ([…]; SEQ ID NO:39) (Hoerena et al. 1998), the MYBcore element ([…]; SEQ ID NO:40) (Larsen 2003), mutated MRE (mMRE) element ([…]; SEQ ID NO:41), mutated MYBcore (mMYBcore) element ([…]; SEQ ID NO:42) and GCC box ([…]; SEQ ID NO:43; Fujimotoa et al., 2000) were synthesized and were end-labeled with […] (Amersham, Pittsburgh, Pa., USA) by T4 polynucleotide kinase (New England Biolabs, Beverly, Mass., USA) at 37° C. for 1 h. […]

MYBcore element = experiment: Gel mobility shift assay, MYBcore; format: binding, Arabidopsis; settings: 100 ng AtMyb77::His, 3x repeat labeled oligo
Method: as §1, §2

[1] = test system: mutated MRE (mMRE) element; experiment: Gel mobility shift assay, mutated MRE; format: binding; settings: band shift
Method: as §1, §2

[2] = test system: mutated MYBcore (mMYBcore) element; experiment: Gel mobility shift assay, mutated MYBcore; format: binding; settings: band shift
Method: as §1, §2

GCC box = experiment: Gel mobility shift assay, GCC box; format: binding; settings: band shift
Method: as §1, §2

wildtype (Col-0) = experiment: Lateral root number with exogenous auxin, wildtype; format: in vivo, Arabidopsis; settings: for lateral root number: Col-0, mean ± SE
Method: (§3) FIG. 4. Reduced AtMyb77 expression reduces lateral root growth sensitivity to exogenous auxin. (A) atmyb77-1 T-DNA insertion line and wild-type Arabidopsis Col-0 grown on MS plates with no added auxin have the same number and length of lateral roots. (B) atmyb77-1 has more lateral roots than wildtype Col-0 with 100 nM IAA and (C) 80 nM 2, 4-D. (D) Mean lateral root numbers per primary root under control conditions and with 100 nM IAA and 80 nM 2, 4-D (n=100±SE).
(§4) The effects of exogenous auxin on lateral root growth under control conditions were also tested in wild-type and atmyb77-1 plants. Wildtype Col-0 and atmyb77-1 plants had the same number of lateral roots and the same primary root length under control conditions (FIGS. 4A and D; Table I). […] Primary root length was the same between lines for each treatment.

[3] = test system: atmyb77 T-DNA insertion lines (KO); experiment: Lateral root number with exogenous auxin, atmyb77 T-DNA insertion line; format: in vivo, Arabidopsis; settings: mean ± SE
Method: as §3, §4

[4] = test system: AtMyb77 promoter::GUS plants; experiment: AtMyb77 promoter::GUS reporter expression in roots after auxin; format: in vivo, Arabidopsis; settings: 100 nM IAA, lateral roots, one day
Method: To localize GUS activity, plants were stained with 1 mM X-Gluc solution 4 days after germination (DAG) (Vicente-Agullo et al. 2004) and were de-stained (Malamy and Benfey 1997). The pictures were taken using a Nikon SMZ1500 dissecting microscope (Nikon). Plants were transferred 3-DAG to full nutrient (1.75 mM KCl) or to low K plates (10 μM KCl), and then grown for 7 days before staining. For auxin treatment, plants were transferred 6-DAG to full nutrient plates (no auxin), and to plates containing 100 nM of IAA, or 80 nM of 2, 4-D, and then grown for one day before staining. Incubation time was 60 minutes and protein concentration was calculated with the CB-X kit (GenoTech).
Expression of AtMyb77-promoter driven GUS expression was detected in roots (FIG. 3) and leaves of seedlings. In roots the expression was localized to the inner cell layers of the primary root including the stele (FIGS. 3A and B). At the tip of primary roots expression of GUS was also seen in the root cap cells (FIG. 3A). Throughout the root expression was visible in the vascular tissue. An interesting pattern of expression was observed during the development of lateral roots. Initially when the lateral roots emerge, the reporter gene expression was observed above and below the emerging lateral root primordia in the cortical cells (FIG. 3C). […]

wildtype Col-0 roots = experiment: Northern blot of auxin regulated genes in roots, wildtype; format: in vivo, Arabidopsis; settings: 20 μM IAA
Method: (§5) FIG. 6. Northern blots of Arabidopsis wildtype Col-0 and T-DNA insertion line atmyb77-1 roots grown in hydroponic conditions for 7 weeks and treated with 20 μM IAA for 0, 6, 30 and 54 hours. Northern blots were probed with 3′ probes from auxin regulated and related genes. Ribosomal RNA loading control shown at bottom.
(§6) Plants were initially grown in nutrient solutions using a rock wool system (Gibeaut et al. 1997) for six weeks at 22° C. with 8 h daylight at 200 μmol.m-2.s-1. Three weeks after germination, plants were transferred to hydroponic tanks containing nutrient medium (Shin et al. 2005) with aeration. Plants were then exposed to a final concentration of 20 μM of IAA (Sigma-Aldrich, St.Louis, Mo.) in the nutrient solutions. After 6 h, 30 h and 54 h roots were harvested. For probes, cDNA fragments were amplified from Arabidopsis cDNA by PCR using primers for the indicated genes as follows: […]
(§7) The amplified cDNAs were labeled with α-^32P-dCTP (Amersham) and Northern blot analyses were performed as described (Shin et al. 2005).

[5] = test system: atmyb77-1 T-DNA insertion line roots; experiment: Northern blot of auxin regulated genes in roots, atmyb77-1; format: in vivo, Arabidopsis; settings: 20 μM IAA; 6, 30, 54 h; atmyb77-1 roots
Method: as §5, §6, §7

## AtMyb77: HIS tagged AtMyb77 R2R3 Myb transcription factor protein (SEQ ID NO:10) purified from E. coli
MRE element
  binding to MRE sequence (band shift): bound
MYBcore element
  binding to MYBcore sequence (band shift): bound
[1]
  binding to MRE with single nucleotide change: eliminated the interaction and binding
[2]
  binding to MYBcore with single nucleotide change: eliminated the interaction and binding
GCC box
  binding to ethylene binding element (GCC): no interaction

## O=C(O)Cc1c[nH]c2ccccc12 [IAA, indoleacetic acid]
Wildtype (Col-0); 100 nM IAA
  lateral root number: 10.05 ± 0.55b
Wildtype (Col-0); seedlings treated with 100 nM IAA
  lateral root formation, wildtype compared to atmyb77-1: reduced significantly more in the wildtype
[3]; 100 nM IAA
  lateral root number: 13.57 ± 0.38c
[4]
  AtMyb77 promoter driven GUS expression: increase in the expression
Wildtype Col-0 roots; 6, 30, 54 h vs 0 h, wild-type roots
  expression of IAA19, IAA1, IAA28, AUX1, SAUR-AC1, AXR1, ARF7, AtMyb77 and Tir1: Clear induction of expression
Wildtype Col-0 roots; after 54 hours, wildtype roots
  PIN1 expression: not induced
[5]
  induction of auxin regulated genes: greatly attenuated or abolished

## O=C(O)COc1ccc(Cl)cc1Cl [2,4,-D, 2,4-dichlorophenoxyacetic acid]
Wildtype (Col-0); 80 nM 2,4-D
  lateral root number: 7.41 ± 0.20 days
Wildtype (Col-0); seedlings treated with 80 nM 2,4-D
  lateral root formation, wildtype compared to atmyb77-1: reduced significantly more in the wildtype
[3]; 80 nM 2,4-D
  lateral root number: 8.80 ± 0.19b
